{"source": "paper PMC7093131", "about": "“Structural and Biomolecular Analyses of Borrelia burgdorferi BmpD Reveal a Substrate-Binding Protein of an ABC-Type Nucleoside Transporter Family” (Infection and Immunity, 2020)", "biological_target": "T1, BmpD (rBmpD; LF-rBmpD) (Borreliella burgdorferi, UniProt P0CL55)", "T1 construct": "signal peptide (residues 1 to 17) removed; N-terminal hexahistidine tag (pET-30a(+)) kept; E. coli BL21(DE3)pLys; 39 kDa; monomer; printed end 323 may be in mature count", "T1 sequence (P0CL55 18-341)": "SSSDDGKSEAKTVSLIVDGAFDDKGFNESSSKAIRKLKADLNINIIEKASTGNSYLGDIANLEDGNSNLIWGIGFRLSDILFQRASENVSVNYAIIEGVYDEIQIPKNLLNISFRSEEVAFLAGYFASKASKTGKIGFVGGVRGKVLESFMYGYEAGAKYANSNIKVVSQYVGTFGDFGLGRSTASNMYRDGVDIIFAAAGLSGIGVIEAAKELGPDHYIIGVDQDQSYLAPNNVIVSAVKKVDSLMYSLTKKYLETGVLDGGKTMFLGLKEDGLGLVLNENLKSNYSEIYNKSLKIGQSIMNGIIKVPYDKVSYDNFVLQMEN", "assay": "X-ray crystal structure ([…] A) with LC-MS of co-purified ligand; label-free MST on refolded LF-rBmpD", "type": "binding", "conditions": "endogenously bound from E. coli expression, crystals at pH 8.0; MST: 500 nM refolded ligand-free protein, single experiment, no Kd displayed", "data": [{"smiles": "Nc1ncnc2c1ncn2[C@@H]1O[C@H](CO)[C@@H](O)[C@H]1O", "note": "[adenosine]", "values": [{"measurement": "X-ray crystal structure (1.43 A) with LC-MS of co-purified ligand; label-free MS", "value": "the ligand was a purine nucleoside, which was confirmed to be an adenosine"}]}]}
